This data set relates to CCRIS mutagenicity, Ames/micronucleus/aberration tests. Kind of data set: CCRIS mutagenicity studies.

The record followed here is PubChem BioAssay AID1259407 (Chemical Carcinogenesis Research Information System (CCRIS), 2018).

The source made the active and inactive calls. The rule behind the calls is not given here.

Turning to `Nc1nc(Cl)cc(Cl)n1`, the mutagenic call is “inactive; negative” (Test System: AMES SALMONELLA TYPHIMURIUM, Strain/Indicator: TA98, Metabolic Activation: HAMSTER, LIVER, S-9, AROCLOR 1254, Method: STANDARD PLATE); “inactive; negative” (Test System: AMES SALMONELLA TYPHIMURIUM, Strain/Indicator: TA98, Metabolic Activation: NONE, Method: STANDARD PLATE); “inactive; negative” (Test System: AMES SALMONELLA TYPHIMURIUM, Strain/Indicator: TA98, Metabolic Activation: RAT, LIVER, S-9, AROCLOR 1254, Method: STANDARD PLATE); “inactive; negative” (Test System: AMES SALMONELLA TYPHIMURIUM, Strain/Indicator: TA100, Metabolic Activation: HAMSTER, LIVER, S-9, AROCLOR 1254, Method: STANDARD PLATE); “inactive; negative” (Test System: AMES SALMONELLA TYPHIMURIUM, Strain/Indicator: TA100, Metabolic Activation: NONE, Method: STANDARD PLATE); “inactive; negative” (Test System: AMES SALMONELLA TYPHIMURIUM, Strain/Indicator: TA100, Metabolic Activation: RAT, LIVER, S-9, AROCLOR 1254, Method: STANDARD PLATE). Besides, the mutagenic call was “inactive; negative” (Test System: AMES SALMONELLA TYPHIMURIUM, Strain/Indicator: TA1535, Metabolic Activation: HAMSTER, LIVER, S-9, AROCLOR 1254, Method: STANDARD PLATE); “inactive; negative” (Test System: AMES SALMONELLA TYPHIMURIUM, Strain/Indicator: TA1535, Metabolic Activation: NONE, Method: STANDARD PLATE); “inactive; negative” (Test System: AMES SALMONELLA TYPHIMURIUM, Strain/Indicator: TA1535, Metabolic Activation: RAT, LIVER, S-9, AROCLOR 1254, Method: STANDARD PLATE); “inactive; negative” (Test System: AMES SALMONELLA TYPHIMURIUM, Strain/Indicator: TA1537, Metabolic Activation: HAMSTER, LIVER, S-9, AROCLOR 1254, Method: STANDARD PLATE); “inactive; negative” (Test System: AMES SALMONELLA TYPHIMURIUM, Strain/Indicator: TA1537, Metabolic Activation: NONE, Method: STANDARD PLATE); “inactive; negative” (Test System: AMES SALMONELLA TYPHIMURIUM, Strain/Indicator: TA1537, Metabolic Activation: RAT, LIVER, S-9, AROCLOR 1254, Method: STANDARD PLATE). For the same molecule, the mutagenic call (Test System: AMES SALMONELLA TYPHIMURIUM, Strain/Indicator: TA1538, Metabolic Activation: HAMSTER, LIVER, S-9, AROCLOR 1254, Method: STANDARD PLATE) is “inactive; negative”; the mutagenic call (Test System: AMES SALMONELLA TYPHIMURIUM, Strain/Indicator: TA1538, Metabolic Activation: NONE, Method: STANDARD PLATE) is “inactive; negative”; the mutagenic call (Test System: AMES SALMONELLA TYPHIMURIUM, Strain/Indicator: TA1538, Metabolic Activation: RAT, LIVER, S-9, AROCLOR 1254, Method: STANDARD PLATE) was “inactive; negative”; the mutagenic call (Test System: MOUSE LYMPHOMA, Strain/Indicator: L5178Y (TK+/TK-), Metabolic Activation: NONE, Method: SUSPENSION/PLATE) is “active; positive. reevaluation of results: positive”; the mutagenic call (Test System: MOUSE LYMPHOMA, Strain/Indicator: L5178Y (TK+/TK-), Metabolic Activation: RAT, LIVER, S-9, AROCLOR 1254, Method: SUSPENSION/PLATE) was “active; positive. reevaluation of results: inconclusive”.
